Consider 26 molecules from US12509467B2 (Hoffmann-La Roche Inc., priority 2020, dated 2025).

The target of one assay is T1, human cGAS (residues 161-522) (Homo sapiens, UniProt Q8N884).
T1 construct: Recombinantly expressed purified human cGAS (residues 161-522) was used at 25 nM; made in house
T1 sequence (Q8N884 161-522): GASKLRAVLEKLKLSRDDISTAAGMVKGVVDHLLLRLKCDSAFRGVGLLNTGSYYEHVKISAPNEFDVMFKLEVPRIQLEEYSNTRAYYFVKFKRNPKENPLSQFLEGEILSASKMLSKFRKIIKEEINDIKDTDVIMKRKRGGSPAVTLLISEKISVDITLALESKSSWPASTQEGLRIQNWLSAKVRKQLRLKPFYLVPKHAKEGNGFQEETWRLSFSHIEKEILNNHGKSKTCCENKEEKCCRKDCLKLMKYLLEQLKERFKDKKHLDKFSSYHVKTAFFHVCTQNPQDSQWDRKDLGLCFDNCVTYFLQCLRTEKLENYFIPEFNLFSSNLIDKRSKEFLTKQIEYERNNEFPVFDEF
Description: cGAS Activity Assay—Malachite Green. The assay is classed as biochemical.
Conditions: not given
The method, then:
Compounds were tested for cGAS inhibition in a coupled enzymatic assay based on Phosphate detection by Malachite Green. Final assay conditions were 20 mM TRIS pH 7.5 (Applichem), 5 mM MgCl2 (Sigma) and 0.01% BSA (Sigma) supplemented with 80 μM ATP (Sigma), 80 μM GTP (Sigma) and 100 nM Interferon Stimulating DNA (ISD) (Microsynth).
1 μL of DMSO dilution series was transferred to 32.3 μL reaction buffer, mixed by pipetting up/down, spun for 1 minute at 3000 rpm and was visually inspected for precipitation. 5 μL of 3-fold enzyme stock solution were transferred to an empty 384-well Black/Clear Flat Bottom Polystyrene NBS (Corning) rows 3-24. Rows 1-2 were filled with assay buffer. Plates were spun 10 seconds at 1000 rpm (164×g). 5 μL of compound intermediate dilution was added and mixed by pipetting up/down to rows 3-24. Rows 1-2 were filled with 3.1% DMSO assay buffer. Plates were spun 10 seconds at 1000 rpm (164×g). 5 μL 3-fold Nucleotide/DNA mix was added to all wells to start the reaction. Plates were spun 10 seconds at 1000 rpm (164×g) and incubated for 4 hour at room temperature (RT) in the dark. 5 μL 4 U/mL PPase (Sigma) were added to all wells. Plates spun 10 seconds at 1000 rpm (164×g). 10 μL BioMol green Solution (Enzo Life Sciences) was added to all wells. Plates spun 10 seconds at 1000 rpm (164×g) and incubated 30 minutes at RT in the dark. Absorbance data was collected 620 nm on an EnVision Multilable Reader (Perkin Elmer) and the following measurement settings were used: excitation filter photometric was 620 nm; excitation from the top; measurement height was 1 mm; number of flashes was 30; number of flashes integrated was 1.
All plates are checked for abnormalities and outliers in the Blank Control (no protein, row 1) and the Neutral Control (no compound, row 2) are excluded using the 3*SD rule.
Table 5 provides IC50 values (μM) for cGAS inhibition obtained for particular examples of the present invention as measured by the above-described assay.
On to `O=c1cc(CCCC(F)F)[nH]c2nc(NCc3ccc(Cl)cc3Cl)nn12` [Example 52, 2-[(2,4-dichlorophenyl)methyl-amino]-5-(4,4-difluorobutyl)-4H-[1,2,4]triazolo[1,5-a]-pyrimidin-7-one], for which the IC50 is 3.28 µM.

Regarding `CCCc1cc(=O)n2nc(NCc3cccc(-c4ccn(C)n4)c3)nc2[nH]1` [Example 13, 2-[[3-(1-methylpyrazol-3-yl)-phenyl]methylamino]-5-propyl-4H-[1,2,4]triazolo[1,5-a]-pyrimidin-7-one], the IC50 is 1.94 µM. Still for that read-out and setting: the same measure for `CCCc1cc(=O)n2nc(NC(C)c3ccc(-c4ccccc4)cc3)nc2[nH]1` (centres unmarked) [Example 56, 2-[1-(4-phenylphenyl)ethyl-amino]-5-propyl-4H-[1,2,4]-triazolo[1,5-a]pyrimidin-7-one]: 2.87 µM.

`CCCCc1cc(=O)n2nc(NCc3cc(N4CC5(COC5)C4)ncc3Cl)nc2[nH]1` [Example 97, 5-Butyl-2-[[5-chloro-2-(2-oxa-6-azaspiro[3.3]heptan-6-yl)-4-pyridyl]methylamino]-4H-[1,2,4]triazolo[1,5-a]pyrimidin-7-one] returned an IC50 of 0.128 µM. On to `CCCc1cc(=O)n2nc(NCc3ccc(OCc4ccccc4)cc3Cl)nc2[nH]1` [Example 15], for which the IC50 worked out at 4 µM. In turn, `CCCc1cc(=S)n2nc(NCc3cc(-c4ccn(C)n4)ccc3Cl)nc2[nH]1` [Example 40, 2-[[2-chloro-5-(1-methylpyrazol-3-yl)phenyl]methylamino]-5-propyl-4H-[1,2,4]triazolo[1,5-a]-pyrimidine-7-thione] yielded a half-maximal inhibitory concentration (IC50) of 0.869 µM. Molecule `O=c1nc(CCc2ccccc2)[nH]c2nc(NCc3ccc(Cl)cc3Cl)nn12` [Example 101, 2-[(2,4-Dichlorophenyl)methylamino]-5-(2-phenylethyl)-4H-[1,2,4]triazolo[1,5-a][1,3,5]-triazin-7-one] registered an IC50 of 7.79 µM.

Staying with this assay, now noted: cGAS inhibition; 25 nM cGAS, 80 μM ATP, 80 μM GTP, 100 nM ISD, 4 hour at RT, Malachite Green phosphate detection; read-out: IC50 cGAS.
In the case of `Cn1ccc(-c2ccc(Cl)c(CNc3nc4[nH]c(C(F)(F)F)cc(=O)n4n3)c2)n1` [Example 19, 2-[[2-chloro-5-(1-methylpyrazol-3-yl)phenyl]methylamino]-5-(trifluoromethyl)-4H-[1,2,4]-triazolo[1,5-a]pyrimidin-7-one], the IC50 turned out to be 0.663 µM. Consider `CCc1cc(=O)n2nc(NCc3ccc(Cl)cc3Cl)nc2[nH]1` [Example 37, 2-[(2,4-dichlorophenyl)methyl-amino]-5-ethyl-4H-[1,2,4]-triazolo[1,5-a]pyrimidin-7-one], for which the IC50 was 5.16 µM.

Consider `CCCc1cc(=O)n2nc(NCc3cc(N4CCOCC4)ccc3Cl)nc2[nH]1` [Example 39, 2-[(2-chloro-5-morpholinophen-yl)methylamino]-5-propyl-4H-[1,2,4]triazolo[1,5-a]pyrimidin-7-one], for which the IC50 came to 1.04 µM. `CCCc1cc(=O)n2nc(NCc3cc(-c4ccn(C)n4)ccc3F)nc2[nH]1` [Example 12, 2-[[2-fluoro-5-(1-methylpyrazol-3-yl)phenyl]methylamino]-5-propyl-4H-[1,2,4]triazolo[1,5-a]pyrimidin-7-one]: the IC50 stood at 0.602 µM. Consider `CCCc1cc(=O)n2nc(NCc3nc4ccccc4o3)nc2[nH]1` [Example 74, 2-(1,3-benzoxazol-2-ylmethyl-amino)-5-propyl-4H-[1,2,4]-triazolo[1,5-a]pyrimidin-7-one], for which the IC50 came to 4.56 µM. Turning to `O=c1cc(C2CC2)[nH]c2nc(NCc3ccc(Cl)cc3Cl)nn12` [Example 59, 5-cyclopropyl-2-[(2,4-dichloro-phenyl)methylamino]-4H-[1,2,4]triazolo[1,5-a]pyrimidin-7-one], the half-inhibitory concentration (IC50) worked out at 3.78 µM. Turning to `CCCc1cc(=O)n2nc(NCc3ccc(C#N)cc3Cl)nc2[nH]1` [Example 7, 3-chloro-4-[[(7-oxo-5-propyl-4H-[1,2,4]triazolo[1,5-a]-pyrimidin-2-yl)amino]methyl]-benzonitrile], the IC50 was 2.42 µM.

`CCCCc1cc(=O)n2nc(NCc3cc(C4CC4)on3)nc2[nH]1` [Example 49, 5-butyl-2-[(5-cyclopropylisox-azol-3-yl)methylamino]-4H-[1,2,4]triazolo[1,5-a]pyrimidin-7-one]: the IC50 was 4.66 µM. Same read-out and setting: the result for `Cn1ccc(-c2ccc(F)c(CNc3nc4[nH]c(C(F)(F)F)cc(=O)n4n3)c2)n1` [Example 20, 2-[[2-fluoro-5-(1-methylpyrazol-3-yl)phenyl]methylamino]-5-(trifluoromethyl)-4H-[1,2,4]-triazolo[1,5-a]pyrimidin-7-one] reads 1.24 µM; that for `COCCc1cc(=O)n2nc(NCc3cc(-c4ccn(C)n4)ccc3Cl)nc2[nH]1` [Example 51, 2-[[2-chloro-5-(1-methylpyrazol-3-yl)phenyl]methylamino]-5-(2-methoxyethyl)-4H-[1,2,4]-triazolo[1,5-a]pyrimidin-7-one], 0.491 µM. As to `CCCc1cc(=O)n2nc(NCc3cc(N4CC(OC)C4)ncc3Cl)nc2[nH]1` [Example 93, 2-[[5-Chloro-2-(3-methoxyazetidin-1-yl)-4-pyridyl]methylamino]-5-propyl-4H-[1,2,4]triazolo[1,5-a]pyrimidin-7-one], the IC50 stood at 0.65 µM.

As for `CCCCc1cc(=O)n2nc(NCc3cc(-c4ccncn4)ccc3Cl)nc2[nH]1` [Example 86, 5-Butyl-2-[(2-chloro-5-pyrimidin-4-yl-phenyl)methylamino]-4H-[1,2,4]triazolo [1,5-a]pyrimidin-7-one], the IC50 was determined as 0.079 µM. Take `O=c1cc(Cc2ccccc2)[nH]c2nc(NCc3ccc(Cl)cc3Cl)nn12` [Example 71, 5-benzyl-2-[(2,4-dichlorophen-yl)methylamino]-4H-[1,2,4]-triazolo[1,5-a]pyrimidin-7-one]: the IC50 was found to be 1.76 µM. Take `O=c1cc(CC(F)(F)F)[nH]c2nc(NCc3ccc(Cl)cc3Cl)nn12` [Example 68, 2-[(2,4-dichlorophenyl)meth-ylamino]-5-(2,2,2-trifluoro-ethyl)-4H-[1,2,4]triazolo[1,5-a]pyrimidin-7-one]: the IC50 stood at 4.44 µM. Same read-out and setting: the same measure for `CCCc1cc(=O)n2nc(NCc3cc(-c4ccncn4)ccc3Cl)nc2[nH]1` [Example 38, 2-[(2-chloro-5-pyrimidin-4-yl-phenyl)methylamino]-5-propyl-4H-[1,2,4]triazolo[1,5-a]-pyrimidin-7-one]: 0.277 µM; for `CCCc1cc(=O)n2nc(NCc3cccc(-c4ccccc4)c3)nc2[nH]1` [Example 16, 2-[(3-phenylphenyl)methyl-amino]-5-propyl-4H-[1,2,4]-triazolo[1,5-a]pyrimidin-7-one]: 2.56 µM. For the molecule `CCCc1cc(=O)n2nc(NCc3ccc(OC)cc3F)nc2[nH]1` [Example 6, 2-[(2-fluoro-4-methoxyphenyl)-methylamino]-5-propyl-4H-[1,2,4]triazolo[1,5-a]pyrimidin-7-one], the IC50 was 2.91 µM. For the molecule `CCCc1cc(=O)n2nc(NCc3ccc(Cl)cc3Cl)nc2[nH]1` [Example 58, 2-[(2,4-Dichlorophenyl)methylamino]-5-propyl-4H-[1,2,4]triazolo[1,5-a]pyrimidin-7-one], the IC50 turned out to be 1.72 µM. Consider `CCCCc1cc(=O)n2nc(NCc3cc(-c4ccccc4)on3)nc2[nH]1` [Example 46, 5-butyl-2-[(5-phenylisoxazol-3-yl)methylamino]-4H-[1,2,4]-triazolo[1,5-a]pyrimidin-7-one-5-butyl-2-[(5-phenylisoxazol-3-yl)methylamino]-4H-[1,2,4]-triazolo[1,5-a]pyrimidin-7-one], for which the IC50 turned out to be 0.805 µM.

By IC50 is commonly meant the midpoint of a concentration-inhibition curve.
